Measurements published in patent US11661426B2, “Imidazole-containing inhibitors of ALK2 kinase” (BioCryst Pharmaceuticals, Inc., priority 2017, dated 2023).
pIC50: −log10 of the molar value.

Molecular target: ALK2 (Homo sapiens (Human), UniProt Q04771)
Test: ALK2 inhibition, LanthaScreen Eu Kinase Binding Assay (ThermoFisher Scientific / Life Technologies)
Conditions: read-out: Measured Ki (IC50) Value for Compounds: IC50
Procedure: Biochemical assays to measure the inhibitory effects of the compounds were performed by ThermoFisher Scientific (Life Technologies). ALK2 inhibition was tested using LanthaScreen™ Eu Kinase Binding Assay screening protocol.

Sequence of ALK2 (Q04771 21-509): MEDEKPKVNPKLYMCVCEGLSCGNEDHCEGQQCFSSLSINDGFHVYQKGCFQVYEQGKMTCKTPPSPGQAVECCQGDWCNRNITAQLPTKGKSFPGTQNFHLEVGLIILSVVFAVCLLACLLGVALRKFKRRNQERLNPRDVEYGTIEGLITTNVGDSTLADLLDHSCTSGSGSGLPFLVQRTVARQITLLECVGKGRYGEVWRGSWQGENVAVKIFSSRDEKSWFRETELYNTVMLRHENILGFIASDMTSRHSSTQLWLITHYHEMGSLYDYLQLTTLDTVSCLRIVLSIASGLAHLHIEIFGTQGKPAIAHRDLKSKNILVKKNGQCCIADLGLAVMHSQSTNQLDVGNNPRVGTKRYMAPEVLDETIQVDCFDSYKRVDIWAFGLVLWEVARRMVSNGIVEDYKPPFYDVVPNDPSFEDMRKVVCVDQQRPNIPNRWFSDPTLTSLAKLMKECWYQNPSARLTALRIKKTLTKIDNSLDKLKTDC

| Compound | pIC50 |
| --- | --- |
| COc1ccc(-n2cnc(Nc3nc(N4CCC[C@H]4CO)c4cccn4n3)c2)cc1C(F)(F)F [Compound 229d, (S)-(1-(2-((1-(4-methoxy-3-(trifluoromethyl)phenyl)-1H-imidazol-4-yl)amino)pyrrolo[2,1-f][1,2,4]triazin-4-yl)pyrrolidin-2-yl)methanol] | 6.00 to 7.00 |
| COc1cc(-n2cnc(Nc3nc(N4CCC[C@H]4C(N)=O)nc4ccoc34)c2)cc(OC)c1OC [Compound 190a, (S)-1-(4-((1-(3,4,5-trimethoxyphenyl)-1H-imidazol-4-yl)amino)furo[3,2-d]pyrimidin-2-yl)pyrrolidine-2-carboxamide] | > 7.00 |
| COc1cc(-n2cnc(Nc3nc(-c4ccccc4C(N)=O)nc4sccc34)c2)cc(OC)c1OC [Compound 157a, 2-(4-((1-(3,4,5-trimethoxyphenyl)-1H-imidazol-4-yl)amino)thieno[2,3-d]pyrimidin-2-yl)benzamide] | > 7.00 |
| COc1cc(-n2cnc(Nc3nc(N(C)C4CCN(C)CC4)nc4ccoc34)c2)cc(OC)c1OC [Compound 265a, N2-methyl-N2-(1-methylpiperidin-4-yl)-N4-(1-(3,4,5-trimethoxyphenyl)-1H-imidazol-4-yl)furo[3,2-d]pyrimidine-2,4-diamine] | > 7.00 |
| COc1cc(-n2cnc(Nc3nc(N4CCC[C@H]4CO)nc4scnc34)c2)cc(OC)c1OC [Compound 164a, (S)-(1-(7-((1-(3,4,5-trimethoxyphenyl)-1H-imidazol-4-yl)amino)thiazolo[5,4-d]pyrimidin-5-yl)pyrrolidin-2-yl)methanol] | > 7.00 |
| COc1cc(-n2cnc(Nc3nc(N4CCC[C@H]4CO)nc4c3CCC4)c2)cc(OC)c1OC [Compound 289b, (S)-(1-(4-((1-(3,4,5-trimethoxyphenyl)-1H-imidazol-4-yl)amino)-6,7-dihydro-5H-cyclopenta[d]pyrimidin-2-yl)pyrrolidin-2-yl)methanol] | > 7.00 |
| CC(C)(C)CC(=O)N1CCN(c2nc(Nc3cn(-c4ccccc4)cn3)c3ccsc3n2)CC1 [Compound 61b, 3,3-dimethyl-1-(4-(4-((1-phenyl-1H-imidazol-4-yl)amino)thieno[2,3-d]pyrimidin-2-yl)piperazin-1-yl)butan-1-one] | > 7.00 |
| COc1cc(-n2cnc(Nc3nc(N4CCC[C@@H]4CO)nc4[nH]ccc34)c2)cc(OC)c1OC [Compound 308b, (R)-(1-(4-((1-(3,4,5-trimethoxyphenyl)-1H-imidazol-4-yl)amino)-7H-pyrrolo[2,3-d]pyrimidin-2-yl)pyrrolidin-2-yl)methanol] | > 7.00 |
| Cn1cnc(Nc2nc(N3CCC[C@H]3CO)nc3ccoc23)c1 [Compound 2a, (S)-(1-(4-((1-methyl-1H-imidazol-4-yl)amino)furo[3,2-d]pyrimidin-2-yl)pyrrolidin-2-yl)methanol] | 6.00 to 7.00 |
| COc1cc(-n2cnc(Nc3nc(N4CCC[C@H]4CO)nn4c(CN5CCN(C6CC6)CC5)ccc34)c2)cc(OC)c1OC [Compound 106b, (S)-(1-(7-((4-cyclopropylpiperazin-1-yl)methyl)-4-((1-(3,4,5-trimethoxyphenyl)-1H-imidazol-4-yl)amino)pyrrolo[2,1-f][1,2,4]triazin-2-yl)pyrrolidin-2-yl)methanol] | > 7.00 |
| COc1cc(-n2cnc(Nc3nc(N4C(=O)CC[C@H]4CO)nc4ccoc34)c2)cc(OC)c1OC [Compound 270a, (S)-5-(hydroxymethyl)-1-(4-((1-(3,4,5-trimethoxyphenyl)-1H-imidazol-4-yl)amino)furo[3,2-d]pyrimidin-2-yl)pyrrolidin-2-one] | > 7.00 |
| OC[C@@H]1CCCN1c1nc(Nc2cn(-c3ccc(F)cc3)cn2)c2cccn2n1 [Compound 25c, (S)-(1-(4-((1-(4-fluorophenyl)-1H-imidazol-4-yl)amino)pyrrolo[2,1-f][1,2,4]triazin-2-yl)pyrrolidin-2-yl)methanol] | > 7.00 |
| COc1cc(-n2cnc(Nc3nc(N4CCC[C@H]4C(N)=O)nc4cc(C)ccc34)c2)cc(OC)c1OC [Compound 392a, (S)-1-(7-methyl-4-((1-(3,4,5-trimethoxyphenyl)-1H-imidazol-4-yl)amino)quinazolin-2-yl)pyrrolidine-2-carboxamide] | > 7.00 |
| Cn1cnc(Nc2nc(N3CCCC3c3ccccn3)nc3ccsc23)c1 (stereo not shown) [Compound 12c, N-(1-methyl-1H-imidazol-4-yl)-2-(2-(pyridin-2-yl)pyrrolidin-1-yl)thieno[3,2-d]pyrimidin-4-amine] | > 7.00 |
| COc1cc(-n2cnc(Nc3nc(N4CCC[C@H]4CO)nc4ccoc34)c2)cc(OC)c1OC [Compound 103b, (S)-(1-(4-((1-(3,4,5-trimethoxyphenyl)-1H-imidazol-4-yl)amino)furo[3,2-d]pyrimidin-2-yl)pyrrolidin-2-yl)methanol] | > 7.00 |
| OC[C@@H]1CCCN1c1nc(Nc2cn(C3CCCC3)cn2)c2cccn2n1 [Compound 50c, (S)-(1-(4-((1-cyclopentyl-1H-imidazol-4-yl)amino)pyrrolo[2,1-f][1,2,4]triazin-2-yl)pyrrolidin-2-yl)methanol] | > 7.00 |

| Compound | pIC50 |
| --- | --- |
| COc1cc(-n2cnc(Nc3nc(N4CCC[C@H]4C(N)=O)nc4sc(CN5CCN(C)CC5)cc34)c2)cc(OC)c1OC [Compound 405b, (S)-1-(6-((4-methylpiperazin-1-yl)methyl)-4-((1-(3,4,5-trimethoxyphenyl)-1H-imidazol-4-yl)amino)thieno[2,3-d]pyrimidin-2-yl)pyrrolidine-2-carboxamide] | > 7.00 |
| COc1c(O)cc(-n2cnc(Nc3nc(N4CCC[C@H]4CO)nn4cccc34)c2)cc1C(=O)NCC1CC1 [Compound 267i, (S)—N-(cyclopropylmethyl)-3-hydroxy-5-(4-((2-(2-(hydroxymethyl)pyrrolidin-1-yl)pyrrolo[2,1-f][1,2,4]triazin-4-yl)amino)-1H-imidazol-1-yl)-2-methoxybenzamide] | 6.00 to 7.00 |
| COc1cc(-n2cnc(Nc3nc(N4CCCC4)nc4c3ccn4S(=O)(=O)c3ccc(C)cc3)c2)cc(OC)c1OC [Compound 163a, 2-(pyrrolidin-1-yl)-7-tosyl-N-(1-(3,4,5-trimethoxyphenyl)-1H-imidazol-4-yl)-7H-pyrrolo[2,3-d]pyrimidin-4-amine] | 6.00 to 7.00 |
| COc1cc(-n2cnc(Nc3nc(N4CCC[C@H]4CO)c4cccn4n3)c2)ccc1C#N [Compound 258d, (S)-4-(4-((4-(2-(hydroxymethyl)pyrrolidin-1-yl)pyrrolo[2,1-f][1,2,4]triazin-2-yl)amino)-1H-imidazol-1-yl)-2-methoxybenzonitrile] | < 6.00 |
| COc1cc(-n2cnc(Nc3nc(N4CCC[C@H]4C(N)=O)c4ccccc4n3)c2)cc(OC)c1OC [Compound 204b, (S)-1-(2-((1-(3,4,5-trimethoxyphenyl)-1H-imidazol-4-yl)amino)quinazolin-4-yl)pyrrolidine-2-carboxamide] | 6.00 to 7.00 |
| OC[C@@H]1CCCN1c1cc(F)cc(-n2cnc(Nc3nc(N4CCC[C@H]4CO)nn4cccc34)c2)c1 [Compound 83c, ((S)-1-(4-((1-(3-fluoro-5-((S)-2-(hydroxymethyl)pyrrolidin-1-yl)phenyl)-1H-imidazol-4-yl)amino)pyrrolo[2,1-f][1,2,4]triazin-2-yl)pyrrolidin-2-yl)methanol] | > 7.00 |
| COc1cc(-n2cnc(Nc3nc(N4CCC[C@H]4C(N)=O)c4cccnc4n3)c2)cc(OC)c1OC [Compound 203b, (S)-1-(2-((1-(3,4,5-trimethoxyphenyl)-1H-imidazol-4-yl)amino)pyrido[2,3-d]pyrimidin-4-yl)pyrrolidine-2-carboxamide] | 6.00 to 7.00 |
| COc1cc(-n2cnc(Nc3nc(N4CCC[C@H]4CO)nc4cc(N5CCC[C@H]5CO)ccc34)c2)cc(OC)c1OC [Compound 269b, ((2S,2′S)-1,1′-(4-((1-(3,4,5-trimethoxyphenyl)-1H-imidazol-4-yl)amino)quinazoline-2,7-diyl)bis(pyrrolidine-2,1-diyl))dimethanol] | > 7.00 |
| COc1cc(-n2cnc(Nc3nc(N4CCC[C@H]4C(N)=O)c4cccn4n3)c2)cc(C(N)=O)c1OC [Compound 230f, (S)-1-(2-((1-(3-carbamoyl-4,5-dimethoxyphenyl)-1H-imidazol-4-yl)amino)pyrrolo[2,1-f][1,2,4]triazin-4-yl)pyrrolidine-2-carboxamide] | < 6.00 |
| OC[C@@H]1CCCN1c1nc(Nc2cn(-c3ccc4c(c3)OC(F)(F)O4)cn2)c2cccn2n1 [Compound 433b, (S)-(1-(4-((1-(2,2-difluorobenzo[d][1,3]dioxol-5-yl)-1H-imidazol-4-yl)amino)pyrrolo[2,1-f][1,2,4]triazin-2-yl)pyrrolidin-2-yl)methanol] | 6.00 to 7.00 |
| COc1cc(-n2cnc(Nc3nc(N4CCC[C@H]4C(N)=O)nc4cccnc34)c2)cc(OC)c1OC [Compound 161a, (S)-1-(4-((1-(3,4,5-trimethoxyphenyl)-1H-imidazol-4-yl)amino)pyrido[3,2-d]pyrimidin-2-yl)pyrrolidine-2-carboxamide] | 6.00 to 7.00 |
| COc1cc(-n2cnc(Nc3nc(N4CCCCC4)c4ccc(CN5CCCC5)cc4n3)c2)cc(OC)c1OC [Compound 409e, 4-(piperidin-1-yl)-7-(pyrrolidin-1-ylmethyl)-N-(1-(3,4,5-trimethoxyphenyl)-1H-imidazol-4-yl)quinazolin-2-amine] | > 7.00 |
| NC(=O)c1cccc(-n2cnc(Nc3nc(N4CCC[C@H]4CO)nn4cccc34)c2)c1 [Compound 94c, (S)-3-(4-(2-(2-(hydroxymethyl)pyrrolidin-1-yl)pyrrolo[1,2-f][1,2,4]triazin-4-ylamino)-1H-imidazol-1-yl)benzamide] | > 7.00 |
| COc1cc(-n2cnc(Nc3nc(N4CCC[C@H]4C(F)(F)F)c4cccn4n3)c2)cc(OC)c1OC [Compound 206b, (S)-4-(2-(trifluoromethyl)pyrrolidin-1-yl)-N-(1-(3,4,5-trimethoxyphenyl)-1H-imidazol-4-yl)pyrrolo[2,1-f][1,2,4]triazin-2-amine] | > 7.00 |
| COc1cc(-n2cnc(Nc3nc(N4CCC[C@@H]4CO)c4occc4n3)c2)cc(OC)c1OC [Compound 301b, (R)-(1-(2-((1-(3,4,5-trimethoxyphenyl)-1H-imidazol-4-yl)amino)furo[3,2-d]pyrimidin-4-yl)pyrrolidin-2-yl)methanol] | > 7.00 |
